Kd data for 102 compounds are collected here from PubChem BioAssay AID1033 (Sanford-Burnham Center for Chemical Genomics, 2008).

Activity calls are given as the source filed them. The rule behind the calls is not given here. A value given as a limit tells only on which side of the number the result lay.

Sequence of Chaperone protein DnaK (Escherichia coli (strain K12)) (P0A6Y8 whole entry, looked up, the tested form may be a part): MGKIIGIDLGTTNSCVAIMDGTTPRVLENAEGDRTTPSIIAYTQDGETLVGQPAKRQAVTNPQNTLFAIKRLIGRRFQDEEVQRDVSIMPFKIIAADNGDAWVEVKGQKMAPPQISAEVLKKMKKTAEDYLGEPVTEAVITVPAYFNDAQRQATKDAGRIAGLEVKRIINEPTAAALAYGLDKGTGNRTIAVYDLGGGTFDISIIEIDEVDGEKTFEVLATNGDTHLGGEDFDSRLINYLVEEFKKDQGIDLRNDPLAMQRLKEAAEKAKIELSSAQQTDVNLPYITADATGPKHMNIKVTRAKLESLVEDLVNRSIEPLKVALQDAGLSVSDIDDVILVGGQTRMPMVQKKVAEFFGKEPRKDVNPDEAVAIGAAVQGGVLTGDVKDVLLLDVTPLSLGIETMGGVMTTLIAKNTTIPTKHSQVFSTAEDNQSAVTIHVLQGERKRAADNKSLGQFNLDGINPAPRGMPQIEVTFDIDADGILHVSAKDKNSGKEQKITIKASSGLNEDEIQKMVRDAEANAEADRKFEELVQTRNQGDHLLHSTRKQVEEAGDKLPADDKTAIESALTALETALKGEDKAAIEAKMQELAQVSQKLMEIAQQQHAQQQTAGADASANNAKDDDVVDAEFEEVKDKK

This assay addresses Chaperone protein DnaK (Escherichia coli (strain K12)) (UniProt P0A6Y8). The assay can be described thus: binders of DnaK substrate-binding domain, biophysical, NMR, chaperone (AID 1033). Particulars: Purified DnaK SBD, NMR ligand binding.
`Cc1ccc(C)c(S(=O)(=O)NCc2cccnc2)c1`: the Kd was > 4 mM (inactive).

On to `O=C(NCc1cccs1)c1ccc2c(c1)OCCO2`, for which the Kd is > 4 mM (inactive).

In the case of `Cn1c(SCCC(=O)O)nnc1-c1cccnc1`, the Kd is > 4 mM (inactive).

Regarding `OCc1ccccc1CN1CCOCC1`, the Kd is > 4 mM (inactive).

In the case of `c1ccc(CCc2nc(-c3cccnc3)no2)cc1`, the Kd was > 4 mM (inactive).

`Cc1cc(=O)c2c(O)c(C)c(O)cc2o1`: the Kd is > 4 mM (inactive).

As to `O=C(O[C@@H]1Cc2c(O)cc(O)cc2O[C@@H]1c1ccc(O)c(O)c1)c1cc(O)c(O)c(O)c1`, the Kd was > 4 mM (inactive).

Take `CC(CCC(=O)O)[C@H]1CCC2C3CC[C@@H]4CCCC[C@]4(C)C3CC[C@@]21C` (some centres not stated): the Kd was > 4 mM (inactive).

For the compound `c1cnc(N2CCNCC2)nc1`, the Kd was > 4 mM (inactive).

As to `NC(=O)C1CCN(C(=S)c2ccccc2)CC1`, the Kd was > 4 mM (inactive).

Turning to `COc1ccccc1-c1noc(-c2ccncc2)n1`, the Kd is > 4 mM (inactive).

For `Cc1cc(SCC(=O)c2ccccc2)nc(=O)[nH]1`, the Kd is > 4 mM (inactive).

As to `O=C1Nc2ccccc2C12OCCO2`, the Kd is > 4 mM (inactive).

For `Nc1ccc2sccc2c1`, the Kd is > 4 mM (inactive).

In the case of `Cn1nc(C(=O)NCc2cccnc2)c2ccccc2c1=O`, the Kd was > 4 mM (inactive).

For the compound `NCc1ccc(-c2csnn2)cc1`, the Kd was > 4 mM (inactive).

As to `O=C(O)CCSc1nc2ccccc2s1`, the Kd is > 4 mM (inactive).

Consider `Cc1cc(C(=O)Nc2ccc3c(c2)OCCO3)c(C)o1`, for which the Kd is > 4 mM (inactive).

For the compound `C[n+]1ccn(C/C(N)=N/O)c1`, the Kd was > 4 mM (inactive).

In the case of `Cc1nn(C)c(N2CCOCC2)c1N`, the Kd was > 4 mM (inactive).

As for `COc1ccc(S(=O)(=O)Nc2ccccn2)c(C)c1C`, the Kd was > 4 mM (inactive).

As for `O=C1c2ccccc2C(=O)N1OCc1ccccc1`, the Kd is > 4 mM (inactive).

With `CC1(C)C(=O)C=C[C@@]2(C)C1C=C[C@]1(C)C2CC[C@@]2(C)[C@H](c3ccoc3)OC(=O)C3OC321` (some centres not stated), the Kd is > 4 mM (inactive).

For the compound `OCc1ccc2c(c1)OCCO2`, the Kd is > 4 mM (inactive).

Turning to `NC(=O)CN1CCCCCC1=O`, the Kd is > 4 mM (inactive).

As for `NC(N)=Nc1nc2ccccc2o1`, the Kd is > 4 mM (inactive).

With `Cc1cc(C(=O)NCc2ccco2)cs1`, the Kd was > 4 mM (inactive).

In the case of `NCCc1c[nH]c2ccccc12`, the Kd was > 4 mM (inactive).

Consider `Cc1cc(NC(=O)c2ccc3c(c2)OCCO3)no1`, for which the Kd is > 4 mM (inactive).

`NC(=O)c1cc(Cl)c(C(N)=O)cc1Cl`: the Kd was > 4 mM (inactive).

Regarding `c1ccc(Cc2nnc(-c3ccccc3)o2)cc1`, the Kd was > 4 mM (inactive).

In the case of `O=C(O)C1CC(=O)N(C2Cc3ccccc3C2)C1` (configuration not stated), the Kd is > 4 mM (inactive).

Consider `COc1ccc2c(c1OC)C(=O)N(c1ncn[nH]1)C2`, for which the Kd is > 4 mM (inactive).

With `Cc1nnc(N2CCc3ccccc3C2)[nH]c1=O`, the Kd is > 4 mM (inactive).

Regarding `CCOC(=O)c1c(C)n([O-])c2ccccc2[n+]1=O`, the Kd is > 4 mM (inactive).

For the compound `Cc1cc(C)n2nc(Cc3ccccc3)nc2n1`, the Kd was > 4 mM (inactive).

For the compound `O=C(O)C(Cc1cnc[nH]1)N1C(=O)c2ccccc2C1=O` (configuration not stated), the Kd was > 4 mM (inactive).

Turning to `Cc1cccc(OCc2nnc(N)s2)c1`, the Kd was > 4 mM (inactive).

Regarding `O=C(O)CCC(=O)Nc1ccccc1F`, the Kd was > 4 mM (inactive).

In the case of `CC1=C(/C=C/C(C)=C/C=C/C(C)=C/C=C/C=C(C)/C=C/C=C(C)/C=C/C(=O)[C@]2(C)C[C@@H](O)CC2(C)C)C(C)(C)C[C@H](O)C1`, the Kd is > 4 mM (inactive).

As to `CC(=O)Nc1ccc(N2CCOCC2)cc1`, the Kd was > 4 mM (inactive).

Regarding `CC(=O)O[C@H]1CC[C@]2(C)C3CC[C@@]4(C)C(CC5O[C@@]6(CCC(C)CO6)[C@@H](C)C54)C3CC[C@@H]2C1` (some centres not stated), the Kd is > 4 mM (inactive).

In the case of `O=C(c1ccccc1)N1CCOCC1`, the Kd was > 4 mM (inactive).

Take `CC(=O)N1CCc2ccccc2C1CC(=O)O` (configuration not stated): the Kd is > 4 mM (inactive).

Take `Nc1ccc(N2CCOCC2)cc1`: the Kd was > 4 mM (inactive).

Regarding `Cc1ccccc1NC(=O)CC1NCCNC1=O` (configuration not stated), the Kd is > 4 mM (inactive).

For `C1CCN2C[C@@H]3C[C@H](CN4CCCC[C@@H]34)[C@H]2C1`, the Kd is > 4 mM (inactive).

`Cc1ccc2cc(CO)ccc2n1`: the Kd was > 4 mM (inactive).

With `COC(=O)CCSCC(=O)Nc1nnc(C)s1`, the Kd was > 4 mM (inactive).

Take `Nc1ccncc1`: the Kd is > 4 mM (inactive).

On to `Cn1c(C(=O)O)ccc1S(N)(=O)=O`, for which the Kd was > 4 mM (inactive).

For the compound `O=C(NCc1ccccc1Cl)c1cnn2cccnc12`, the Kd is > 4 mM (inactive).

Take `CC(CC(=O)NN)C1(O)CCCCC1` (configuration not stated): the Kd was > 4 mM (inactive).

Turning to `CC(=O)Nc1ccccc1-c1ccccc1NC(C)=O`, the Kd is > 4 mM (inactive).

For the compound `CC(C)(C)P(=O)(O)c1ccccc1`, the Kd is > 4 mM (inactive).

Regarding `CSc1nc(NC(C)C)nc(N2CCOCC2)n1`, the Kd was > 4 mM (inactive).

For `COc1cc(C(C)=O)cc(OC)c1O`, the Kd is > 4 mM (inactive).

On to `c1cc2c(cc1[C@H]1OC[C@H]3[C@@H]1CO[C@H]3c1ccc3c(c1)OCO3)OCO2`, for which the Kd is > 4 mM (inactive).

For the compound `COc1cc(N)ncn1`, the Kd was > 4 mM (inactive).

Regarding `O=C(O[C@@H]1Cc2c(O)cc(O)cc2O[C@@H]1c1cc(O)c(O)c(O)c1-c1c([C@H]2Oc3cc(O)cc(O)c3C[C@H]2O)cc(O)c(O)c1O)c1cc(O)c(O)c(O)c1`, the Kd was > 4 mM (inactive).

As for `CC1=C(CCC(=O)O)c2cc3nc(cc4[nH]c(cc5[nH]c(cc1n2)c(C)c5C(C)O)c(C)c4C(C)O)C(C)=C3CCC(=O)O` (configuration not stated), the Kd was > 4 mM (inactive).

As to `Cn1ncc(C(=O)O)c1-c1ccccc1`, the Kd was > 4 mM (inactive).

As for `CC(=O)NC(=S)Nc1ccccc1C(N)=O`, the Kd is > 4 mM (inactive).

With `COc1c(O)cc2c(-c3ccccc3)cc(=O)oc2c1OC`, the Kd is > 4 mM (inactive).

Take `CC(C)(C)c1cc(CN)c(C(=O)O)o1`: the Kd is > 4 mM (inactive).

Take `Nc1cc(C(=O)N2CCCC2)cc(C(=O)N2CCCC2)c1`: the Kd is > 4 mM (inactive).

On to `NC(=O)CNC(=O)c1ccccc1`, for which the Kd is > 4 mM (inactive).

For `CC1CCN(C(=O)c2cc3ccccc3o2)CC1`, the Kd was > 4 mM (inactive).

Turning to `COC(=O)CC1C(C)(C)C(OC(C)=O)[C@@H]2[C@@H](OC(C)=O)[C@]34O[C@@]2(O)[C@]1(C)C3CC[C@]1(C)C4=CC(=O)O[C@H]1c1ccoc1` (some centres not stated), the Kd was > 4 mM (inactive).

Turning to `COc1ccc2c(c1)[n+](=O)c(C(C)=O)c(C)n2[O-]`, the Kd is > 4 mM (inactive).

As to `COc1ccc2[nH]c(O)c(NC(C)=O)c2c1`, the Kd is > 4 mM (inactive).

For the compound `O=C(Nc1ccccc1)Nc1ccccc1`, the Kd is > 4 mM (inactive).

For the compound `N#Cc1cnn2c(C(F)(F)F)cc(C(F)(F)F)nc12`, the Kd was > 4 mM (inactive).

As for `O=c1c(O)c(-c2ccc(O)cc2O)oc2cc(O)cc(O)c12`, the Kd was > 4 mM (inactive).

On to `COC(=O)c1cc(-c2c(C)nn(-c3ccccc3)c2C)n[nH]1`, for which the Kd was > 4 mM (inactive).

Turning to `CC(=O)Nc1cc(O)cc(O)c1`, the Kd is > 4 mM (inactive).

For the compound `NC(=O)CSc1ccc2nnc(-c3cccs3)n2n1`, the Kd is > 4 mM (inactive).

Turning to `CC(C)=NNC(=O)C(=O)Nc1ccc(F)cc1`, the Kd is > 4 mM (inactive).

Consider `CS(=O)(=O)c1cccc(C(=O)Nc2nccs2)c1`, for which the Kd is > 4 mM (inactive).

With `Cc1cc2c(=O)n(C)c(SCC(N)=O)nc2s1`, the Kd is > 4 mM (inactive).

In the case of `NC12CC3CC(C1)CC(CC(=O)O)(C3)C2`, the Kd was > 4 mM (inactive).

For `CCOC(=O)Cn1cnc2sc3c(c2c1=O)CCC3`, the Kd was > 4 mM (inactive).

Take `OCc1ccc(OC(F)(F)F)cc1`: the Kd is > 4 mM (inactive).

For the compound `COc1cc2nc(N3CCNCC3)nc(N)c2cc1OC`, the Kd was > 4 mM (inactive).

In the case of `NCc1ccc(-n2cccc2)cc1`, the Kd was > 4 mM (inactive).

As for `CCOC(=O)c1ccc(F)cc1F`, the Kd was > 4 mM (inactive).

In the case of `CN(C)C(=O)c1ccccc1-c1ccccc1`, the Kd is > 4 mM (inactive).

As for `Cc1cc(C)n2c(SCc3cccs3)nnc2n1`, the Kd is > 4 mM (inactive).

Consider `NC(=O)CCN1C(=O)c2ccccc2C1=O`, for which the Kd is > 4 mM (inactive).

As for `COC(=O)c1cc(-c2c[nH]c3ccccc23)n[nH]1`, the Kd is > 4 mM (inactive).

Consider `O=c1ccc2cc(O[C@@H]3O[C@H](CO)[C@@H](O)[C@H](O)[C@H]3O)c(O)cc2o1`, for which the Kd was > 4 mM (inactive).

With `O=C1CC(=O)N(Cc2ccco2)C(=S)N1`, the Kd is > 4 mM (inactive).

Regarding `CCOC12NC(=O)CC(=O)N1C(c1ccccc1)=CS2` (configuration not stated), the Kd is > 4 mM (inactive).

For `O=C(CN1C(=O)CCC1=O)c1ccccc1`, the Kd was > 4 mM (inactive).

Turning to `Cc1nc(SCC(=O)c2c[nH]c3ccccc23)n[nH]1`, the Kd is > 4 mM (inactive).

Consider `CCCCCC1C(=O)CCC1CC(=O)OC` (configuration not stated), for which the Kd was > 4 mM (inactive).

On to `Cc1cc(SCCF)n2ncnc2n1`, for which the Kd was > 4 mM (inactive).

In the case of `OCC1CCCCCN1` (configuration not stated), the Kd is > 4 mM (inactive).

As for `O=C(NCc1cccnc1)c1ccccn1`, the Kd is > 4 mM (inactive).

As for `COC(=O)[C@H]1[C@H]2C[C@H]3c4[nH]c5ccccc5c4CCN3C[C@H]2CC[C@@H]1O`, the Kd is > 4 mM (inactive).

Turning to `COC(=O)c1noc(-c2ccc(OC)cc2)n1`, the Kd is > 4 mM (inactive).

Regarding `NS(=O)(=O)c1ccc(NC(=O)c2cccs2)cc1`, the Kd is > 4 mM (inactive).
